Common to all, as to format: cell-based, human
One test concerns A375 melanoma cell line. Kind of test: SRB cell viability assay in A375 cells. To be noted: for inhibition of melanoma cell viability: A375, 20 µM; for inhibition of melanoma cell viability / EC50: 72 h; for viability reduction in melanoma cells / EC50: A375, SRB; for viability reduction in melanoma cells: 40–60 µM; for EC50: Homo sapiens, A-375, read-out: half maximal effective concentration (EC50) able to reduce cell viability. Here is the method:
In preliminary experiments, the evaluation of cell viability at different time after compound administration was carried out with sulforhodamine B (SRB) assay. Indeed, after 24-, 48-, and 72-h treatment, an evident time dependence in the inhibition of cell growth was registered (data not shown). Thus, to evaluate A375 and MeWo cell viability, we decided to perform further SRB experiments with each compound only after 72 h.
Human MeWo (HTB-65) and A375 (CRL-1619) melanoma cell lines as well as the normal human epidermal melanocyte (NHEM) (PCS-200-013) cell line (ATCC, Manassas, VA, USA) were cultured at 37 °C under 5% CO2 in a humidified atmosphere. Roswell Park Memorial Institute 1640 medium (RPMI, Gibco, Ref.21875, Thermo Scientific, Waltham, MA, USA) was used to culture MeWo cells, while Dulbecco’s Modified Eagle Medium (DMEM, Gibco, Ref. 61965, Thermo Scientific, Waltham, MA, USA) was used for A375 and NHEM cell lines. The culture media were supplemented with 10% fetal bovine serum (FBS, Gibco, Thermo Scientific, Waltham, MA, USA) plus 1% Antibiotic Antimycotic Solution (Gibco, Thermo Scientific). The MEK1 inhibitor U0126 (CAY-70970) and the PI3K inhibitor LY294002 (CAY-70920) were provided by Cayman Chemical, Ann Arbor, MI, USA.
Melanoma MeWo and A375 cells or NHEM were seeded in 96-well plates (5.0 × 10^3 cells/well for MeWo cells and 2.9 × 10^3 cells/well for A375 or NHEM). After 24-h culture, the cells were treated with different concentrations of compounds 1–7. After 72-h treatment, the cells were fixed by adding 25 µL/well of 50% (w/v) TCA directly into the culture medium. The plates were incubated at 4 °C for 1 h, washed four times with ddH2O, and dried at RT. Staining was performed by adding 50 µL/well of 0.04% (w/v) sulforhodamine B (SRB) sodium salt solution (Sigma-Aldrich, Milan, Italy). After 1-h incubation at RT, the plates were rinsed with 1% HAc and air-dried. SRB was solubilized in a 10 mM Tris-base solution pH 10.5 and Abs492 measured in the plate reader TECAN NanoQuant Infinite M200 Pro (Tecan Group Ltd., Männedorf, Switzerland). Six replicates for each condition/data point were performed.

In the next test the test system is cyclin A2. Kind of test: Immunoblot of cyclin A2 in A375 cells. To be noted: A375, 20 µM, 48 or 72 h. On the procedure:
(§1) A375 cells were seeded in 6 cm Petri dishes (190 300 cell/dish) and treated with different compounds at 10 or 20 μM. After 48- or 72-h treatment, the cells were scraped using warm 1× sample buffer (2% SDS, 10% glycerol, 50 mM Tris-HCl, 1.75% β-mercaptoethanol, and bromophenol blue) and boiled at 99 °C for 10 min. Total protein extracts were kept at −80 °C until use.
(§2) Protein extracts were analyzed with a 7.5 or 10% polyacrylamide SDS-PAGE and transferred to a polyvinylidene difluoride membrane (PVDF, Thermo Fisher Scientific, Waltham, MA, USA). The membranes were blocked at RT for 1 h with TBST buffer (10 mM Tris-HCl pH 7.5, 100 mM NaCl, 0.1% Tween20) containing 4% Milk (Formulat). […] Immuno-detection was carried out with an ECL kit (GE-Healthcare, Little Chalfont, UK), and the chemiluminescence signals were detected with ChemiDoc (Bio-Rad, Hercules, CA, USA).

The subject of another test is P21(Cip1/Waf1). Put plainly: Immunoblot of P21 in A375 cells. Particulars: A375, 20 µM, 48 and 72 h. Here is the method:
as §1, §2
A general note: In western blotting, separated proteins are transferred to a membrane and probed.

A further test has as its system P53. Put plainly: Immunoblot of P53 in A375 cells. Particulars: A375, 20 µM, 48 and 72 h. Here is the method: as §1, §2
Another test deals with Akt. Put plainly: Immunoblot of total Akt in A375 cells. Particulars: A375, 20 µM, 48 and 72 h. On the procedure: as §1, §2
A further test relates to A375 cells. Kind of test: Wound closure cell migration assay. Particulars: A375, 20 µM, vs controls. Here is the method:
The wound healing assay is widely used to measure cell migration. The method is based on quantifying the rate at which cells can close an artificial scratch created in a confluent cell monolayer. A375 cells were seeded in 12-well plates (120 × 10^3 cells/well) and, once confluence was reached, the monolayer was scratched with a sterile 10 μL pipette tip. […] Then, either cryptotanshinone (4) or salviolone (7) at 10 or 20 µM was added to the culture. After 0-, 8-, 24- and 30-h culture, images were captured with Zeiss Axio Vert. (Zeiss, Milan, Italy) to measure the delay to repopulate the scratch in comparison with the non-treated control sample.

In the case of `C[C@H]1COC2=C1C(=O)C(=O)c1c2ccc2c1CCCC2(C)C` [Compound 4, cryptotanshinone], in the test with A375 melanoma cell line, the “inhibition of melanoma cell viability” value is recorded as “about 50%”, the “viability reduction in melanoma cells” value was 70–80% and the EC50 is about 14 µM. The “cyclin A2 expression level” value in the test with cyclin A2 is “slightly reduced”. Besides, the P21 expression level result with P21(Cip1/Waf1) is given as “significantly increased”. Further, the P53 protein expression result in the test with P53 was “significant increase”. In addition, in the test on Akt, the “expression level of Akt total protein” value is given as “not changed”. In the test with A375 cells, the “A375 cell migration rate / wound healing closure” value is recorded as “slow down”.
As to `Cc1cc2ccc3c(c2cc(O)c1=O)CCCC3(C)C` [Compound 7, salviolone], in the test on A375 melanoma cell line, the “inhibition of melanoma cell viability” value is reported as “about 50%”, the “viability reduction in melanoma cells” value is listed as 70–80% and the EC50 is about 17 µM. The “cyclin A2 expression level” value with cyclin A2 is given as “strongly reduced”. Moreover, in the test on P21(Cip1/Waf1), the P21 expression level result is given as “strongly increased”. Further, the P53 protein expression result with P53 is “significant increase”. The “expression level of Akt total protein” value in the test with Akt was “not changed”. Moreover, the “A375 cell migration rate / wound healing closure” value in the test on A375 cells is recorded as “did not significantly delay”.

These data come from PMC8835475, “Salviolone from Salvia miltiorrhiza Roots Impairs Cell Cycle Progression, Colony Formation, and Metalloproteinase-2 Activity in A375 Melanoma Cells: Involvement of P21(Cip1/Waf1) Expression and STAT3 Phosphorylation” (International Journal of Molecular Sciences, 2022).
